Assay results published in ChEMBL document CHEMBL2057094, “Inhibition of VEGF transcription through blockade of the hypoxia inducible factor-1α-p300 interaction by a small molecule” (Bioorg Med Chem Lett, 2012).
Calls of active or inactive are those of the source. No cut-off for these calls is given here.

Experiments:
HeLa [1] = assay: Cytotoxicity against human deferoxamine treated HeLa cells assessed as decrease of cell viability after 24 hrs by MTT assay relative to control; format: functional
[2] = biological target: T1, Histone acetyltransferase p300/Hypoxia-inducible factor 1-alpha (Homo sapiens, UniProt Q09472+Q16665); assay: Inhibition of human C-terminal activation domain of HIF-1alpha/CH1 domain of GST-p300 interaction using F-786-826 at 200 uM by fluorescence polarization based assay; format: protein-complex assay
Target sequence in this assay (Q09472 2-2414 limits assumed): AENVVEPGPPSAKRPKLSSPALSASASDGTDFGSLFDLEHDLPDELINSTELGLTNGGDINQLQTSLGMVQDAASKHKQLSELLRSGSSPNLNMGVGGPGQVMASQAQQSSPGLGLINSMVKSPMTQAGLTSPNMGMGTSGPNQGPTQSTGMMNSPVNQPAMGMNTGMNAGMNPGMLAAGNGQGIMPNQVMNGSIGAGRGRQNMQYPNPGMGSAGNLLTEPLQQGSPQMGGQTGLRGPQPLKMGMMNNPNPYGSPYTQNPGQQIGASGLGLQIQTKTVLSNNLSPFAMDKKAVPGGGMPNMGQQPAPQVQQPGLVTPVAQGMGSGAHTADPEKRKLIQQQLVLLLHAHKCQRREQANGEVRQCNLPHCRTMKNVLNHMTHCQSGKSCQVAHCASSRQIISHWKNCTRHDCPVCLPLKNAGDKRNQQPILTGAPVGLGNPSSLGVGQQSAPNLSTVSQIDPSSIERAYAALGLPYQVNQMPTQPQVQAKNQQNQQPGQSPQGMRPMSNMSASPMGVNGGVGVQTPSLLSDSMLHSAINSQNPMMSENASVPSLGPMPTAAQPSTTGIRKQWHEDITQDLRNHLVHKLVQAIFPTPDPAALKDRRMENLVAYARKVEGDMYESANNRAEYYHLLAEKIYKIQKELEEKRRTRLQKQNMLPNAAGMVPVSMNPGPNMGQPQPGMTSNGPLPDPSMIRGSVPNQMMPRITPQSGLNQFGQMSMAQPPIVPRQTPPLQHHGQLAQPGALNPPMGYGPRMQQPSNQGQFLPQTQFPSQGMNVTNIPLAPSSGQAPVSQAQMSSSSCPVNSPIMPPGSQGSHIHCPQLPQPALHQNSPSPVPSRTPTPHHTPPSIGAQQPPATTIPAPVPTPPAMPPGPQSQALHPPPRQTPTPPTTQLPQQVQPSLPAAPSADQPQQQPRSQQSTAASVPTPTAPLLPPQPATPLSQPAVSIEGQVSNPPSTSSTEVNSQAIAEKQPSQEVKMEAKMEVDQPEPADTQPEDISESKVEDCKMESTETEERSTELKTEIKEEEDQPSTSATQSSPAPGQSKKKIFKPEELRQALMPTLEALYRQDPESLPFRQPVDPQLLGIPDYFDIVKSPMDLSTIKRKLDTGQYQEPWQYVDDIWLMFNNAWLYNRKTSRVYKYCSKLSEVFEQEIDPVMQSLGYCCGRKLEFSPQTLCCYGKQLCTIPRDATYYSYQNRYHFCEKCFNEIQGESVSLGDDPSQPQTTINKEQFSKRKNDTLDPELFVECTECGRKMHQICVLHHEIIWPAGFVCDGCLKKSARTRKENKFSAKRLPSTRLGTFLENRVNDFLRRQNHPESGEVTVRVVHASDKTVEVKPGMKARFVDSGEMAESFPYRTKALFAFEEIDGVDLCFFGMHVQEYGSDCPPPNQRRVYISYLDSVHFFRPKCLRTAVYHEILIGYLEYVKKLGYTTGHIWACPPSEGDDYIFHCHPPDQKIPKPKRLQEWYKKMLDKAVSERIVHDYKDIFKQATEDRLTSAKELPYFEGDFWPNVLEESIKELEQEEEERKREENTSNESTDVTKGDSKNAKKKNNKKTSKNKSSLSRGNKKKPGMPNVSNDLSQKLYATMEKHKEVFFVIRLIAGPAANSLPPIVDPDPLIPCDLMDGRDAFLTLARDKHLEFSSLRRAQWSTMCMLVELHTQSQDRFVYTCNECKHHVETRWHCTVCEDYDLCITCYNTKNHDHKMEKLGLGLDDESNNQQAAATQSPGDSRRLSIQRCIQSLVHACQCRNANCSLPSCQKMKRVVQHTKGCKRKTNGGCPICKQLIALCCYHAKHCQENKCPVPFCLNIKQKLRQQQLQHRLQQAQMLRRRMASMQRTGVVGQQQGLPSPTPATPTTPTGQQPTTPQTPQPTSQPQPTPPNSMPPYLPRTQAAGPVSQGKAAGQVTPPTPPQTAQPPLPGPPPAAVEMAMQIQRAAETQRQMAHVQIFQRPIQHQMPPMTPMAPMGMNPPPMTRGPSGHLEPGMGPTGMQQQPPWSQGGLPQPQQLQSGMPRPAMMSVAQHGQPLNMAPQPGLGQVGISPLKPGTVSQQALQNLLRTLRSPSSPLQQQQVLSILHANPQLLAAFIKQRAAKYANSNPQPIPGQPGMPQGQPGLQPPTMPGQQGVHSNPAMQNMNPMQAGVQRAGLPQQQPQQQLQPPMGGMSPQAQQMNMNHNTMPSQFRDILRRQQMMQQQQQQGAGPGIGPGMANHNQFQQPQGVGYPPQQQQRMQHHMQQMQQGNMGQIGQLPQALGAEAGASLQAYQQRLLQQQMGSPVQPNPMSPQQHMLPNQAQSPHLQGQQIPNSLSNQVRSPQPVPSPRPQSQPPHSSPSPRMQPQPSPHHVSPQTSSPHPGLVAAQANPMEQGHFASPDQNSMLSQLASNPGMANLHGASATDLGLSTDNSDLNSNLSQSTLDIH
Target sequence in this assay (Q16665 whole entry partner, the tested form may be a part): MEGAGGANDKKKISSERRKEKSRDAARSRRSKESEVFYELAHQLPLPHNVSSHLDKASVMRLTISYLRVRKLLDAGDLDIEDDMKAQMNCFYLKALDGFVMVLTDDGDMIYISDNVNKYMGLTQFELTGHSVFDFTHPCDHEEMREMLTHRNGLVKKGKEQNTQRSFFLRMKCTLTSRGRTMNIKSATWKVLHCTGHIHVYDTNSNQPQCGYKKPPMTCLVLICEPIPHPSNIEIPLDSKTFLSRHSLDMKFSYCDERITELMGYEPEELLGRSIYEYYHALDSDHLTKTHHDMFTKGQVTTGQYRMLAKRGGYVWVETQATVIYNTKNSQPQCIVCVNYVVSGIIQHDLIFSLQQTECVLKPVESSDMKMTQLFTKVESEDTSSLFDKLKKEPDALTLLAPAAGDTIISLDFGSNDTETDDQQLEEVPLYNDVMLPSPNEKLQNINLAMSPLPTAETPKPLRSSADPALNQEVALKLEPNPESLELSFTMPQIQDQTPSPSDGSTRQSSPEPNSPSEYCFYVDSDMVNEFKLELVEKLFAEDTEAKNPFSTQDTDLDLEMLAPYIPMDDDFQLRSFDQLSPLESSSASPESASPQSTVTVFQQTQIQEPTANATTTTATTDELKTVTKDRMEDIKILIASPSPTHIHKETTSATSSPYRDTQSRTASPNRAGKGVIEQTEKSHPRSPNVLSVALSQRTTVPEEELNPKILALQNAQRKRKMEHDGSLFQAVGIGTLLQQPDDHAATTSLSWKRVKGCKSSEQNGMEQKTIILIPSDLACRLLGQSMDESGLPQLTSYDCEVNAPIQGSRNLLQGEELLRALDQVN

[3] = biological target: Hypoxia-inducible factor 1-alpha (Homo sapiens) (UniProt Q16665); assay: Effect on stabilization of HIF-1alpha in deferoxamine treated human HeLa cells at 50 to 500 uM by Western blot analysis; format: cell-based
HeLa [4] = assay: Cytotoxicity against human deferoxamine treated HeLa cells assessed as decrease of cell viability after 48 hrs by MTT assay; format: functional, cell-based
[5] = biological target: Hypoxia-inducible factor 1-alpha (Homo sapiens) (UniProt Q16665); assay: Inhibition of HIF-1alpha in deferoxamine treated human HeLa cells assessed as reduction of VEGF mRNA level at 100 uM after 5 hrs by RT-PCR analysis; format: cell-based
[6] = biological target: T1, Histone acetyltransferase p300/Hypoxia-inducible factor 1-alpha; assay: Inhibition of human C-terminal activation domain of HIF-1alpha/CH1 domain of GST-p300 interaction using F-786-826 by fluorescence polarization based assay; format: protein-complex assay
[7] = biological target: T1, Histone acetyltransferase p300/Hypoxia-inducible factor 1-alpha; assay: Inhibition of deferoxamine-induced HIF-1alpha/resin-bound GST-p300 interaction human HeLa cells using coomasie blue staining by GST pull-down assay; format: cell-based
Target sequence in this assay (Q09472 2-2414 limits assumed): as the sequence (Q09472 2-2414 limits assumed) above
Target sequence in this assay (Q16665 whole entry partner, the tested form may be a part): as the sequence (Q16665 whole entry partner, the tested form may be a part) above

Sequence of Hypoxia-inducible factor 1-alpha (Homo sapiens) (Q16665 whole entry, looked up, the tested form may be a part): as the sequence (Q16665 whole entry partner, the tested form may be a part) above

- inhibition [2]: 80%
- Activity [3]: inactive
- inhibition [5]: Active
- IC50 [6]: 107 µM
- inhibition [7]: Active
Compound: CC(C)Cc1cc(CNC(=O)N2CCN(CC(=O)Nc3ccccc3Cl)CC2)nn1-c1ccccc1.Cl
- Activity (HeLa [1]): 50%
- Activity (HeLa [4]): Dose-dependent effect
